Measured values published in US11590147B2, “17-hydroxyprogesterone ester-containing oral compositions and related methods” (Lipocine Inc., priority 2015, dated 2023).
Like-named read-outs stand apart in the source and are kept apart here.

Columns and labels:
[1] = Phase 1b open-label pharmacokinetic study in healthy pregnant women (single dose data and simulated steady state); assay type: in vivo, human (pregnant women); settings: for Cmax / AUC(0-t): female, human, in vivo, N = 7; for Cmax / AUC(0-t) / AUCSS / Css, max: pregnant women; for AUC(0-t): read-out: AUC0-24; for AUCSS / Css, max: simulated steady state; for AUCSS: 1 week duration
Protocol: Formulations (e.g., oral dosage forms like those described herein) were used in a Phase 1b open-label study that enrolled eight healthy; pregnant women at 16 to 18 weeks gestation. All subjects received three treatments in sequence. In period one, subjects received two doses of 400 mg with oral dosage forms like those described herein, administered 12 hours apart. In period two, subjects received two doses of 800 mg oral with dosage forms like those described herein, administered 12 hours apart. In period three, subjects were given 250 mg of HPC via intramuscular injection (marketed product Makena®). Blood samples were collected periodically over 24 hours following oral dosing and over 28 days following the IM dose.
Steady state pharmacokinetic parameters for oral and IM dosing regimens were simulated based on single dose data and the Cmax and […] values are shown in the table below.

[2] = cited from earlier work
[3] = Saxton et al. 2004; Greene NEJM; cited from earlier work
[4] = oral 400 mg BID (two doses 12 hours apart)
[5] = oral 800 mg BID (two doses 12 hours apart)

CCCCCC(=O)O[C@]1(C(C)=O)CC[C@H]2[C@@H]3CCC4=CC(=O)CC[C@]4(C)[C@H]3CC[C@@]21C [Example 17HPC, 17-hydroxyprogesterone caproate]
increase in exposure with dose ([1]; 800 mg dose vs 400 mg dose, oral): more than dose proportional increase in exposure | Cmax [1, 4]: 21.3 ng/mL | AUC(0-t) [1, 4]: 156 ng·h/mL | Cmax [1, 5]: 63.2 ng/mL | AUC(0-t) [1, 5]: 577 ng·h/mL | absorption following oral administration ([1]; healthy pregnant women): significant HPC absorption | AUCSS ([1]; oral 400 mg BID): 1074 ng·h/mL | AUCSS ([1]; oral 800 mg BID): 4058 ng·h/mL | Css, max ([1]; oral 400 mg BID): 21.6 ng/mL | Css, max ([1]; oral 800 mg BID): 71.1 ng/mL | solubility in water [2]: < 0.02 µg/mL | oral activity [3]: no oral activity
